Data reported in US20220403032A1, “THERAPY FOR DIABETES USING STEM CELL MIGRATION AGENT” (Biozipcode, Inc., priority 2019, published 2022).

Tested on: diabetic patients (type 1 and type 2 diabetes mellitus)
Experiment: Research Plan 2: therapy of diabetes mellitus targeting a bone marrow-derived abnormal hematopoietic stem cell
Format: in vivo, human
Details: type 1 and type 2 diabetic patients; twelve weeks of therapy; predicted result

Substance: insulin [insulin alone]
- Effect of eliminating an abnormal hematopoietic stem cell: not eliminated
- Effect of healing diabetes mellitus: not observed
- Therapeutic effect on a complication: observed to some extent, but the complication does not heal
